Assay [1] concerns human hepatocyte carcinoma HepG2 cells. In words: Cytotoxicity assay HepG2, resazurin reduction. Format: cell-based. The protocol: Mammalian cell lines (J774 and HepG2) were passaged in RPMI media supplemented with MEM, Pen-Strep (1%) and 10% FCS. Cultures were kept at 37°C incubator with 5% CO2 in filter-cap flasks.
Murine macrophage cells (J774) and human hepatocyte carcinoma HepG2 cells were seeded at 0.5x10^5 cell/well in 384 well plates in triplicate, exposed to serial dilution of compounds, dispensed using an Echo 650 acoustic dispenser (Labcyte). After incubation for 72 h at 37°C, 5% CO2, cell viability was determined using fluorescence resazurin reduction assay (λEx: 550 nm; λEm: 590 nm).

Assay [2] deals with T. brucei 2T1 RNAi lines. In words: Dose response after targeted stem-loop RNAi knockdown. Format: cell-based, Trypanosoma brucei. As to the method:
Selected genes with the high reads were validated by individual RNAi targeting. Briefly, gene-specific RNAi fragments of 400–600 bp were amplified with PCR primers designed with RNAit tool (S1 Table) and cloned into pRPa^iSL to generate stem-loop, ‘hairpin’ dsRNA to induce RNAi knockdown. The AscI linearized plasmid was transfected into 2T1 cells and positive colonies were selected with hygromycin (2.5 μg/ml). Positive, puromycin sensitive clones were analysed by PHT-39 dose response analysis after 24 h tetracycline induction and compared to uninduced controls and parental lines.

For assay [3], the system named is T. brucei BSF. In words: Cell cycle (nuclei/kinetoplast count, DAPI) after PHT-39 treatment. Format: cell-based, Trypanosoma brucei. Conditions: 1 x EC50, 24 h. As to the method:
10^6 cells were harvested by centrifugation (1000*g) after 24 h from cultures in logarithmic growth phase and washed once with serum-free HMI-9. After fixation in 2% formaldehyde cell were applied to a glass slide and mounted with Vectashield Antifade mounting medium with 4′,6-diamidino2-phenylindole (DAPI) for fluorescence microscopy imaging on a Leica TCS SP8 WLL SMD-FLIM inverted confocal microscope. The number of nuclei (N) and kinetoplasts (K) per cell were then counted for 100 cells in each respective replicate (n = 3), allowing determination of cell cycle stage.

The subject of assay [4] is T. brucei brucei BSF. In words: T. brucei BSF viability, resazurin reduction. Conditions: Trypanosoma brucei. Format: cell-based, Trypanosoma brucei brucei.
The test system of assay [5] is Plasmodium falciparum. The arrangement: method as in PMID 35749989. Conditions: cited from earlier work.
For assay [6], the system named is Plasmodium berghei ANKA. The arrangement: method as in PMID 35749989. Particulars: cited from earlier work.
[7] abbreviates: 24 h tetracycline induction vs uninduced.

Where “and” joins values, the source holds several entries; their conditions need not be identical. Identical values can stand only once. Entries after “also recorded” stand apart in the source; their conditions may differ. A value given as a limit tells only on which side of the number the result lay.

`CC[C@@H](C)[C@H](c1nc2ccccc2n1Cc1cn(-c2ccc(C(F)(F)F)cc2)nn1)N1C(=O)c2ccccc2C1=O` [PHT-39]: the Selectivity entry in assay [1] (HepG2 cytotoxicity vs intramacrophage L. infantum) was “over 90 fold”. The 50% effective concentration (EC50) in assay [1] (Homo sapiens, HepG2, 72 h, cytotoxicity, 72 h, read-out: EC50 (CT50) HepG2) is greater than 100000 nM. Also, in assay [2], the “Sensitivity shift after RNAi of HSP104 homolog (ClpB1) Tb927.2.5980” value is reported as “did not elicit a significant PHT-39 sensitivity shift; also recorded: did not determine a significant sensitivity shift”; the “Sensitivity shift after RNAi of nicotinamidase paralogs Tb927.9.3970 and Tb927.9.4040” value is on record as “did not elicit a significant PHT-39 sensitivity shift; also recorded: did not determine a significant sensitivity shift”. Moreover, in assay [2] (setting [7]), the “EC50 shift after RNAi of miltefosine transporter Tb927.11.3350” value is on record as “mild but significant EC50 increase” and the “Sensitivity shift after knockdown of ESAG5” value was “very modest but significant sensitivity shift”. In addition, in assay [3], the “Proportion of 2K1N cells, decreased to” value is recorded as “approximately 57%” and the “Proportion of 2K2N cells, decreased to” value is recorded as “approximately 28%”. Also, the viability at 2.5 µM in assay [4] (72 h, read-out: Residual viability, T.brucei (2.5 µM), BSF, 2.5 µM, 72 h) came to 64.9 ± 7.25%. For the same compound, in assay [4] (72 h, read-out: Residual viability, T.brucei (25 µM), BSF, 25 µM, 72 h), the viability at 25 µM was found to be 2.85 ± 2.88%. In addition, the EC50 in assay [4] (read-out: EC50 T. brucei BSF, dose response, triplicate, ± SD (Table 2) / ± SE (S3 Table)) stood at 3900 ± 1700 nM. Besides, the “Mitochondrial membrane potential, P. falciparum trophozoites” value in assay [5] (3 h exposure at EC50 0.64 μM) was “collapse of the mitochondrial membrane potential”. Also, the EC50 in assay [5] (read-out: EC50 Plasmodium falciparum intraerythrocyte stages) was 640 nM and 600 nM. Also, the “Parasitemia and host survival, P. berghei ANKA infection model” value in assay [6] is “considerable decrease in parasitemia and significantly extended host survival”.

Source of the values: article PMC10994559 (PLOS Neglected Tropical Diseases, 2024).
